Values after ≈ are worked out from the molar mass of the structure shown.
Test: Solubility of p-TSA in various solvents
Type: physicochemical
Settings: thermodynamic from solid

SMILES: Cc1ccc(S(N)(=O)=O)cc1 [p-TSA, p-Toluenesulfonamide]
- solubility (aqueous with cosolvent or surfactant or cyclodextrin, in 20% 7-sulfobutyl-ether-β-cyclodextrin (SBEβCD), n = 3): 17.6 mg/mL (≈ 103 mM)
- solubility (organic solvent or mixture, in Absolute ethanol, n = 3): 108 mg/mL (≈ 628 mM)
- solubility (organic solvent or mixture, in Dimethyl sulfoxide (DMSO), n = 3): 786 mg/mL (≈ 4590 mM)
- solubility (organic solvent or mixture, in Glycerol, n = 3): 28.4 mg/mL (≈ 166 mM)
- solubility (organic solvent or mixture, in Glycofurol 75, n = 3): 443 mg/mL (≈ 2590 mM)
- solubility (organic solvent or mixture, in Polyethylene glycol 400 (PEG-400), n = 3): 467 mg/mL (≈ 2720 mM)
- solubility (organic solvent or mixture, in Propylene glycol (PG), n = 3): 118 mg/mL (≈ 688 mM)

Reference: US10548862B2, “Topical formulation and method for preventing or treating acne” (Gongwin Biopharm Holdings Co., Ltd., priority 2017, dated 2020)
